Experimental data taken from US20130129675A1, “INTERFERON THERAPIES IN COMBINATION WITH BLOCKADE OF STAT3 ACTIVATION” (BOARD OF REGENTS, THE UNIVERSITY OF TEXAS SYSTEM, priority 2009, published 2013).
Read-outs that look alike come from different tables or passages of the source.

How the values were obtained:
STAT3 = STAT3 (Homo sapiens, UniProt P40763); settings: in vitro; cited from earlier work
[1] = test system: human breast tumor xenografts; settings: cited from earlier work
[2] = test system: breast carcinoma cell lines with constitutively active STAT3; settings: cited from earlier work
[3] = Toxicology of p-STAT3 inhibitors in mice (histology of systemic organs, Luxol fast blue staining of CNS axis); assay type: in vivo, C57BL/6J mice; settings: for histological examination of the systemic organs: treated mice
From the text: The toxicological properties of the small molecule inhibitors of p-STAT3 appear favorable. […] Because p-STAT3 blockade agents are potent immune activators, nonspecific immune reactivity in the CNS remains a consideration. […] Fujita M, Zhu X, Sasaki K, et al., Inhibition Of STAT3 Promotes The Efficacy Of Adoptive Transfer Therapy Using Type-1 CTLs By Modulation Of The Immunological Microenvironment In A Murine Intracranial Glioma, J Immunol 2008; 180:2089-2098. This lack of induced autoimmunity may be due to STAT3's role as the key regulator of the generation of Th17 cells, which are primary immune cell mediators of autoimmunity. Thus, the inhibitors of p-STAT3 may also be inhibiting the mediators of CNS autoimmunity-Th 17 responses.

[4] = animals treated with JSI-124 (Fujita et al.); cited from earlier work
[5] = test system: lymphoma and cervical cancer; settings: cited from earlier work
intracerebral tumors = settings: mouse, in vivo; cited from earlier work
[6] = test system: human breast carcinoma and syngeneic murine melanoma; settings: not in carcinomas that lack constitutive expression of p-STAT3; cited from earlier work
[7] = set-up: species or system CD1 mice; settings: in vivo; for mean peak plasma concentration: CD1, mouse, iv
Procedure: Of central importance to the treatment of CNS gliomas and metastasis is the use of agents with sufficient CNS permeability and subsequent cytotoxic activity, of which there is direct evidence for WP1066 and indirect evidence for JSI-124. To determine the physiological doses of WP1066 that can be achieved in vivo, CD1 mice were given WP1066 as an intravenous bolus (10 or 40 mg/kg) or by oral gavage (40 mg/kg) and killed at various time points up to 24 hours after treatment. […] When WP1066 was delivered intraperitoneally at a dose of 100 mg/kg or intravenously at a dose of 10 mg/kg every other day for up to 2 weeks, plasma concentrations exceeded 1 μM, and CNS concentrations (with an intact blood-brain barrier) exceeded 62 μg/g of tissue (0.185 μM); concentrations in U87-MG malignant glioma-bearing animals exceeded 362 μg/g (1.08 μM). […] Fujita M, Zhu X, Sasaki K, et al., Inhibition Of STAT3 Promotes The Efficacy Of Adoptive Transfer Therapy Using Type-1 CTLs By Modulation Of The Immunological Microenvironment In A Murine Intracranial Glioma, J Immunol 2008; 180:2089-2098.

melanoma tumors (B16) = assay: WP1066 against established syngeneic intracerebral tumors; assay type: in vivo, C57BL/6J mice
Procedure: (§1) Iwamaru A, Szymanski S, Iwado E, et al., A Novel Inhibitor Of The STAT3 Pathway Induces Apoptosis In Malignant Glioma Cells Both In Vitro And In Vivo. Oncogene 2006; 26: 2435-2444. […] To determine whether treatment with WP1066 is efficacious against established syngeneic intracerebral tumors, C57BL/6J mice with melanoma tumors (B16) were treated by oral gavage with WP1066 starting on day 3 after tumor implantation. […] Kong L Y, Abou-Ghazal M K, Wei J, et al., A Novel Inhibitor Of STAT3 Activation Is Efficacious Against Established Central Nervous System Melanoma And Inhibits Regulatory T Cells, Clin Cancer Res (Submitted).
Fujita M, Zhu X, Sasaki K, et al., Inhibition Of STAT3 Promotes The Efficacy Of Adoptive Transfer Therapy Using Type-1 CTLs By Modulation Of The Immunological Microenvironment In A Murine Intracranial Glioma, J Immunol 2008; 180:2089-2098. […] Furthermore, when JSI-124 was combined with adoptive transfer of type I cytotoxic T lymphocytes, survival was further enhanced compared with treatment with either modality alone. The authors concluded that the inhibition of STAT3 could reverse the immune-suppressive immune microenvironment and promote the efficacy of adoptive transfer therapy. Id.

[8] = test system: human melanoma xenografts and syngeneic murine melanoma; assay: WP1066 in melanoma xenografts and syngeneic melanoma; assay type: in vivo; settings: oral gavage
Procedure: as §1

[9] = test system: microglia, systemic APCs and T cells from patients with cancer; assay: WP1066 on immune cells obtained from patients with cancer; assay type: cell-based
From the text: We recently have shown that blocking STAT3 activity by treatment with WP1066 in microglia obtained from the CNS of patients with cancer upregulates co-stimulatory molecules (e.g., CD80, CD86). The expression of co-stimulatory molecules is necessary for T-cell proliferation, and if a T cell encounters APCs, such as microglia/microphages, without co-stimulatory molecules present, the T cells will be rendered anergic. […] Of note, this potent immune activation occurred in immune cells obtained from patients with disease refractory to other conventional immune activators, such as toll-like receptor agonists.

[10] = test system: CD4+CD25−CD62Lhi naïve T cells; assay: FoxP3 induction during inducible Treg (iTreg) differentiation; assay type: cell-based, C57BL/6J mice; settings: 0, 0.1 and 1.0 μM, 96 hours, flow cytometry (FIG. 2)
Procedure: (§2) The blockade of activation of STAT3 and its subsequent nuclear translocation inhibits both tumorigenesis and tumor-mediated immunosuppression. […] CD4^+CD25^−CD62L^hi naïve T cells from C57BL/6J mice were stimulated by plate-bound anti-CD3 (2 μg/ml) and soluble anti-CD28 (2 μg/ml) in the presence of TGF-β1 (1 ng/ml) and hIL-2 (200 U/ml), with 0, 0.1, and 1.0 μM WP1066 for inducible Tregs (iTreg) differentiation. CD4^+CD25^+ T cells (natural Tregs, nTreg) were stimulated by plate-bound anti-CD3 (2 μg/ml) and soluble anti-CD28 (2 μg/ml) in the presence of hIL-2 (200 U/ml), with 0, 0.1, and 1.0 μM WP1066. Ninety-six hours after stimulation, the cells were analyzed for intracellular FoxP3 expression by flow cytometry. The percentage of FoxP3 expressing T cells is shown.
(§3) In additional experiments, CD4^+CD25^−CD62L^hi naïve T cells from C57BL/6J mice were stimulated by plate-bound anti-CD3 (2 μg/ml) and soluble anti-CD28 (2 μg/ml) in the presence of TGF-β1 (1 ng/ml) and hIL-2 (200 U/ml), with 0, 0.1, and 1.0 μM WP1066 for inducible Tregs (iTreg) differentiation. CD4^+CD25^+ T cells (natural Tregs, nTreg) were stimulated by plate-bound anti-CD3 (2 μg/ml) and soluble anti-CD28 (2 μg/ml) in the presence of hIL-2 (200 U/ml), with 0, 0.1, and 1.0 μM WP1066. Ninety-six hours after stimulation, the cells were analyzed for intracellular FoxP3 expression by flow cytometry.

[11] = test system: CD4+CD25+ T cells (natural Tregs); assay: FoxP3 expression in natural Tregs (nTreg); assay type: cell-based, C57BL/6J mice; settings: 0, 0.1 and 1.0 μM, 96 hours, flow cytometry (FIG. 2)
Procedure: as §2, §3

[12] = test system: head and neck carcinoma (MDA1986), pancreatic cancer (MiaPaca2), bladder cancer, glioma (U-87), lymphoma, myeloma, leukemia; settings: 40 mg/kg intraperitoneally every other day for 28 days; cited from earlier work
[13] = test system: malignant glioma xenografts (U-87 and U-373); settings: cited from earlier work
[14] = test system: human lung cancer xenografts; settings: cited from earlier work
[15] = test system: STAT3 in HaCaT keratinocytes; assay: pSTAT3 level in HaCaT keratinocytes (MSD chemiluminescent detection); assay type: cell-based, human; settings: for Relative level of pSAT3: HaCaT cells, stimuli for 30 minutes
Procedure: Prior to experiments, the DMEM medium was changed to KGM-SFM containing rEGF and bovine pituitary extract for 12 hours, and the cells then exposed to various stimuli for 30 minutes. Cell lysates were extracted in IP lysis buffer were diluted in MSD extraction buffer and 25 uL of the cell lysate containing 10 ug protein was used in the analysis via chemiluminescent detection (MSD Technology). To test for inhibition by WP1220 (WP), cells were pre-incubated with WP1220 prior to the addition of IFN α.

STAT3, sequence (P40763 whole entry, species assumed): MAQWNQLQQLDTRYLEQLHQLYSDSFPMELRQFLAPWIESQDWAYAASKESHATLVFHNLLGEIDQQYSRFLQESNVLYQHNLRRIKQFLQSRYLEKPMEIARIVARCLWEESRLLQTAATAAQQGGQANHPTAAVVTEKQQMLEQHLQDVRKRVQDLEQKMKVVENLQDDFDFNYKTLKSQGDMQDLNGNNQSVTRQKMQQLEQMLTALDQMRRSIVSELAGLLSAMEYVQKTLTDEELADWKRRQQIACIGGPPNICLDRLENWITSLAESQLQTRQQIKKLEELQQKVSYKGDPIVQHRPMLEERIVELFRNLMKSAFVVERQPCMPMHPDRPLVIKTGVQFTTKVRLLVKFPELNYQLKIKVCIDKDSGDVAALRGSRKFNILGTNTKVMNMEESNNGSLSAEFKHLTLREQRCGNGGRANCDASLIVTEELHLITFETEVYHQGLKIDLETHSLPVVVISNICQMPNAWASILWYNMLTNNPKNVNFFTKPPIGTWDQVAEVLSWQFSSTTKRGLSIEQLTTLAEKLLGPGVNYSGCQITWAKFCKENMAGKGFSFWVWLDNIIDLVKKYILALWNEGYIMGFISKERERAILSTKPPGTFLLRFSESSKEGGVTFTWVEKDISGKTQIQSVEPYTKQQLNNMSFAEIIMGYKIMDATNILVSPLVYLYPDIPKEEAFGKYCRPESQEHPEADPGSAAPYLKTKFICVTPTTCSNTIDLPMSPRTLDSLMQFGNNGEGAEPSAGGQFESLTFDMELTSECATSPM

N#C/C(=C\c1ccc(O)c(O)c1)C(=O)NCc1ccccc1 [AG490, (E)-N-benzyl-2-cyano-3-(3,4-dihydroxyphenyl)acrylamide]
IC50 (STAT3): > 50 µM

Cc1ccc(S(=O)(=O)OCC(=O)Nc2ccc(C(=O)O)c(O)c2)cc1 [Example S31-301]
in vivo tumor growth [1]: suppress the in vivo growth of human breast tumor xenografts | growth and apoptosis [2]: inhibit growth and induce apoptosis preferentially

CC(C)(O)/C=C/C(=O)[C@](C)(O)[C@H]1[C@H](O)C[C@@]2(C)[C@@H]3CC=C4[C@@H](C=C(O)C(=O)C4(C)C)[C@]3(C)C(=O)C[C@]12C [JSI-124, cucurbitacin I]
histological examination of the systemic organs [3]: failed to reveal any major toxicities | induced autoimmunity [4]: no evidence of induced autoimmunity | in vitro activity [5]: in vitro activity against lymphoma and cervical cancer | survival (intracerebral tumors): prolonged survival | in vivo tumor growth [6]: inhibit the in vivo growth of human breast carcinoma and syngeneic murine melanoma

C[C@H](NC(=O)/C(C#N)=C/c1cccc(Br)n1)c1ccccc1 [WP1066, (S,E)-3-(6-bromopyridin-2-yl)-2-cyano-N-(1-phenylethyl)acrylamide]
mean peak plasma concentration ([7]; 10 mg/kg): 1.05 µM | mean peak plasma concentration ([7]; 40 mg/kg): 4.31 µM | mean peak plasma concentration (oral bioavailability studies) ([7]; mouse, po, 40 mg/kg): greater than 2 μM | induction of autoimmunity in CNS (Luxol fast blue staining) ([3]; C57BL/6J mice): no evidence of induction of autoimmunity | local tolerability ([3]; mouse, in vivo): localized inflammatory responses | histological examination of the systemic organs [3]: failed to reveal any major toxicities | in vivo efficacy in immune-incompetent background (melanoma tumors (B16); established intracerebral tumors, immune-incompetent background): ablated | animals surviving long-term (melanoma tumors (B16); oral gavage starting on day 3 after tumor implantation, vehicle control 0%): 80% | tumor growth [8]: marked growth suppression | immune-suppressive cytokines such as TGF-β [9]: inhibits | production of pro-inflammatory cytokines (IL-2, IL-4, IL-12, IL-15) by systemic APCs ([9]; immune-suppressed patients): induces | co-stimulatory molecules (CD80, CD86) on microglia ([9]; microglia from the CNS of patients with cancer): upregulates | FoxP3 induction in T cells [10]: inhibiting FoxP3 induction | FoxP3 in natural Tregs [11]: down-regulates FoxP3 | tumor growth [12]: statistically significant suppression of tumor growth | duration of p-STAT3 inhibition in excised tumors after the final injection ([13]; immunohistochemical analysis): at least 3 weeks | tumor growth ([13]; systemic intraperitoneal administration, 30-day follow-up): significant inhibition of tumor growth

Cucurbitacin Q
in vivo tumor growth [14]: suppressed in vivo growth of human lung cancer xenografts

EGF: growth factor, stimulus in HaCaT pSTAT3 test (NSDSECPLSHDGYCLHDGVCMYIEALDKYACNCVVGYIGERCQYRDLKWWELR; Epidermal growth factor; UniProt P01133 971-1023, looked up)
Relative level of pSAT3 [15]: + (+=less than 200 fold)

IL-6: cytokine, stimulus in HaCaT pSTAT3 test
STAT3 activation in keratinocytes [15]: potently induce STAT3 activation | Relative level of pSAT3 [15]: +++++ (+++++=400-500 fold)

bFGF: basic fibroblast growth factor, stimulus in HaCaT pSTAT3 test
Relative level of pSAT3 [15]: + (+=less than 200 fold)
